From article PMC11239830, “Synthetic macrolides overcoming MLSBK-resistant pathogens” (Cell Discovery, 2024)
≈ marks a conversion by molar mass, not a printed value. Like-named read-outs stand apart in the source and are kept apart here.

Key:
[1] = tested on: E. coli S30 extract protein synthesis; test: In vitro E. coli transcription/translation assay; assay type: biochemical; conditions: cell-free transcription/translation, materials from E. coli
Text: The in vitro transcription/translation assay for E. coli utilized materials from the E. coli S30 extract system for circular DNA (L1020, Promega, USA). This kit contains all the necessary components for efficient transcription and translation of a user-provided DNA template. To test the inhibition of protein synthesis, the assay uses plasmid pBESTluc, which contains the firefly luciferase gene, as the DNA template. The intensity of luminescence resulting from luciferase expression corresponds to the efficiency of protein synthesis. The luminescence intensity was quantified in the presence or absence of the tested compounds. […] This experiment was repeated twice independently.

M. catarrhalis = test: MIC, broth microdilution; assay type: cell-based, Moraxella catarrhalis; conditions: Moraxella catarrhalis; M. catarrhalis 13L332, Ery-S; read-out: MIC
Protocol: MICs were determined by the microdilution method according to the Clinical and Laboratory Standards Institute guidelines. Briefly, the stock solution of compounds and the reference antibiotics were diluted 2-fold in sterile 96-well plates with cation-adjusted Mueller-Hinton broth, and mixed with CAMHB-containing bacteria to give a final inoculum of 5 × 10^5 CFU/mL for broth microdilution experiments. […] Finally, the 96-well plates were incubated at 37 °C for 16–20 h to observe and record the results. The lowest concentration at which no bacterial growth could be observed visually was identified as the MICs of the compounds. The assay for MICs was replicated at least three times.

HEK293T cells = test: CCK-8 assay for cytotoxicity; assay type: cell-based, human; conditions: 48 h
Protocol: (§1) HepG2 cells (6 × 10^3) and HEK293T cells (4 × 10^3) were seeded into 96-well plates in 90 μL of DMEM medium containing 10% FBS per well. […] After overnight incubation, the test compound stock solution was diluted with DMEM medium containing 10% FBS to every target concentration, and 10 μL of each was added to each well. Three parallel experiments were set up for each compound. After incubation for 48 h, 10 μL of cell counting kit-8 (CCK-8) reagent was added to each well in sequence according to the manufacturer’s instructions. […] This experiment was independently repeated three times. The data were processed by GraphPad Prism.

[2] = CCK-8 assay for cytotoxicity; assay type: cell-based, human; conditions: human, HEK293T cells, HEK293T cell viability
Protocol: as §1

WT S. aureus ribosomes = test: PURE in vitro translation inhibition assay; assay type: biochemical, Staphylococcus aureus; conditions: mean ± SD
Protocol: (§2) To validate the in vitro activity of our compounds, we employed an in vitro reconstituted E. coli Protein synthesis Using a Recombinant Elements (PURE) translation system, substituting E. coli ribosomes with the purified S. aureus ribosomes.
(§3) 5 μL of PURE reaction mix that translates a gene encoding the Nanoluc luciferase was set up in the presence or absence of tested compounds. Protein synthesis was initiated by incubating reactions at 37 °C for 60 min and stopped by placing on ice for 5 min. Luciferase activity was quantified using the Nano-Glo luciferase assay system and read on a GloMax 20/20 luminometer (Promega, USA). For each compound, the in vitro translation inhibition assay was performed in three biological triplicates over a range of concentrations from 0.001 μM to 1000 μM. A compound-free control was used to normalize luminescence measurements. The calculated luminescence percentages were plotted against compound concentrations on a semilog scale using GraphPad Prism.

[3] = tested on: 15B196 S. aureus ribosomes (A2058-methylated); test: PURE in vitro translation inhibition assay; assay type: biochemical, Staphylococcus aureus; conditions: mean ± SD
Protocol: as §2, §3

S. aureus = test: MIC, broth microdilution; assay type: cell-based, Staphylococcus aureus
In short: (§4)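 Read-out is the lowest concentration without observed growth after 16–20 h at 37 °C, using the CLSI broth microdilution method.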

S. pneumoniae = test: MIC, broth microdilution; assay type: cell-based, Streptococcus pneumoniae
In short: as §4

[4] = tested on: E. coli JW5503 ΔtolC pDualrep2; test: pDualrep2 dual-reporter assay; assay type: cell-based; conditions: red = Katushka2S, translation inhibitors; green = RFP, DNA damage
S. pyogenes = test: MIC, broth microdilution; assay type: cell-based, Streptococcus pyogenes
In short: as §4

[5] = Staphylococcus aureus, MRSA, MRSA (13)
[6] = Staphylococcus aureus, i-MLSB S. aureus (10)

Question: For `CC[C@H]1OC(=O)[C@H](C)[C@@H](OC(=O)NCCCCCCC#Cc2ccc3c(=O)c(C(=O)O)cn(C)c3c2)[C@H](C)[C@@H](O[C@@H]2O[C@H](C)C[C@H](N(C)C)[C@H]2O)[C@](C)(OC)C[C@@H](C)C(=O)[C@H](C)[C@H]2NC(=O)O[C@@]21C` [MCX-219], which IC50 [1] is on record?
Answer: 1190 nM

Question: What about the MIC (M. catarrhalis) of the same compound?
Answer: 0.5 µg/mL (≈ 0.517 µM)

Question: What about the CC50 (HEK293T cells; HEK293T cell viability) of the same compound?
Answer: 26000 nM

Question: And the “cytotoxicity at 5 μM” value (HEK293T cells; HEK293T, 5 μM)?
Answer: significantly reduced cytotoxicity compared to TcmX

Question: And the CC50 at 48 h [2]?
Answer: 25700 ± 4080 nM

Question: And the IC50 (WT S. aureus ribosomes)?
Answer: 720 ± 370 nM

Question: What about the IC50 [3] of the same compound?
Answer: 570 ± 140 nM

Question: What about the MIC (S. aureus; S. aureus 15B196, Clinical, MRSA, c-ermB) of the same compound?
Answer: 1 µg/mL (≈ 1.03 µM)

Question: And the MIC (S. aureus; S. aureus 21B200, Clinical, MRSA, c-ermB)?
Answer: 4 µg/mL (≈ 4.14 µM)

Question: And the MIC (S. aureus; S. aureus 21B207, Clinical, MRSA, c-ermB)?
Answer: 2 µg/mL (≈ 2.07 µM)

Question: What about the MIC (S. aureus; S. aureus 21B212, Clinical, MSSA, i-ermC) of the same compound?
Answer: 0.25 µg/mL (≈ 0.258 µM)

Question: And the MIC (S. aureus; S. aureus 21C173, Clinical, MSSA, i-ermC)?
Answer: 0.25 µg/mL (≈ 0.258 µM)

Question: What about the MIC (S. aureus; S. aureus 21C174, Clinical, MSSA, c-ermB) of the same compound?
Answer: 0.25 µg/mL (≈ 0.258 µM)

Question: What about the MIC (S. aureus; S. aureus 21C187, Clinical, MRSA, i-ermA) of the same compound?
Answer: 0.12 µg/mL (≈ 0.124 µM)

Question: What about the MIC (S. aureus; S. aureus 21D112, Clinical, MSSA, c-ermB) of the same compound?
Answer: 16 µg/mL (≈ 16.5 µM)

Question: And the MIC (S. aureus; S. aureus 21D115, Clinical, MSSA, i-ermC)?
Answer: 0.25 µg/mL (≈ 0.258 µM)

Question: And the MIC (S. aureus; S. aureus 21F198, Clinical, MRSA, c-ermB)?
Answer: 1 µg/mL (≈ 1.03 µM)

Question: What about the MIC (S. aureus; S. aureus 21F206, Clinical, MSSA, c-ermB) of the same compound?
Answer: 8 µg/mL (≈ 8.27 µM)

Question: And the MIC (S. aureus; S. aureus 21F207, Clinical, MRSA, i-ermC)?
Answer: 0.25 µg/mL (≈ 0.258 µM)

Question: And the MIC (S. aureus; S. aureus 21K194, Clinical, MSSA, i-ermC)?
Answer: 0.06 µg/mL (≈ 0.062 µM)

Question: And the MIC (S. aureus; S. aureus 21N354, Clinical, MRSA, c-ermB)?
Answer: 1 µg/mL (≈ 1.03 µM)

Question: And the MIC (S. aureus; S. aureus 21P191, Clinical, MSSA, c-ermC)?
Answer: 16 µg/mL (≈ 16.5 µM)

Question: And the MIC (S. aureus; S. aureus 21P404, Clinical, MSSA, i-ermC)?
Answer: 0.25 µg/mL (≈ 0.258 µM)

Question: And the MIC (S. aureus; S. aureus 21P407, Clinical, MRSA, c-ermB)?
Answer: 8 µg/mL (≈ 8.27 µM)

Question: And the MIC (S. aureus; S. aureus 21Q253, Clinical, MRSA, c-ermB)?
Answer: 1 µg/mL (≈ 1.03 µM)

Question: And the MIC (S. aureus; S. aureus 21R216, Clinical, MSSA, c-ermC)?
Answer: 16 µg/mL (≈ 16.5 µM)

Question: And the MIC (S. aureus; S. aureus 21T141, Clinical, MRSA, c-ermB)?
Answer: 1 µg/mL (≈ 1.03 µM)

Question: And the MIC (S. aureus; S. aureus 21X388, Clinical, i-ermA (MRSA in Table S9, MSSA in Fig. 2a))?
Answer: 0.06 µg/mL (≈ 0.062 µM)

Question: And the MIC (S. aureus; S. aureus 21Y223, Clinical, MRSA, i-ermC)?
Answer: 0.25 µg/mL (≈ 0.258 µM)

Question: What about the MIC (S. aureus; S. aureus ATCC29213) of the same compound?
Answer: 0.12 µg/mL (≈ 0.124 µM)

Question: And the MIC (S. aureus; S. aureus PU32, Clinical, MRSA, i-ermA)?
Answer: 0.25 µg/mL (≈ 0.258 µM)

Question: What about the MIC50 (S. aureus; [5]) of the same compound?
Answer: 1 µg/mL (≈ 1.03 µM)

Question: And the MIC90 (S. aureus; [5])?
Answer: 4 µg/mL (≈ 4.14 µM)

Question: And the MIC50 (S. aureus; Staphylococcus aureus, MSSA, MSSA (10))?
Answer: 0.25 µg/mL (≈ 0.258 µM)

Question: And the MIC (S. aureus; Staphylococcus aureus, S. aureus 15B196, c-ermB, read-out: MIC)?
Answer: 1 µg/mL (≈ 1.03 µM)

Question: What about the MIC (S. aureus; Staphylococcus aureus, S. aureus PU32, i-ermA, read-out: MIC) of the same compound?
Answer: 0.25 µg/mL (≈ 0.258 µM)

Question: What about the MIC50 (S. aureus; Staphylococcus aureus, c-MLSB (constitutive) S. aureus (13)) of the same compound?
Answer: 2 µg/mL (≈ 2.07 µM)

Question: What about the MIC90 (S. aureus; Staphylococcus aureus, c-MLSB S. aureus (13)) of the same compound?
Answer: 16 µg/mL (≈ 16.5 µM)

Question: What about the MIC50 (S. aureus; [6]) of the same compound?
Answer: 0.25 µg/mL (≈ 0.258 µM)

Question: What about the MIC90 (S. aureus; [6]) of the same compound?
Answer: 0.25 µg/mL (≈ 0.258 µM)

Question: And the MIC90 (S. aureus; Staphylococcus aureus, MSSA (10))?
Answer: 16 µg/mL (≈ 16.5 µM)

Question: And the MIC (S. pneumoniae; S. pneumoniae 07P390, c-ermB, listed as 88g)?
Answer: 0.06 µg/mL (≈ 0.062 µM)

Question: What about the MIC (S. pneumoniae; S. pneumoniae 21C315, Clinical, c-ermB) of the same compound?
Answer: 0.016 µg/mL (≈ 0.0165 µM)

Question: And the MIC (S. pneumoniae; S. pneumoniae 21D016, Clinical, c-ermB, mef)?
Answer: 0.03 µg/mL (≈ 0.031 µM)

Question: And the MIC (S. pneumoniae; S. pneumoniae 21D020, Clinical, c-ermB, mef)?
Answer: 0.03 µg/mL (≈ 0.031 µM)

Question: And the MIC (S. pneumoniae; S. pneumoniae 21M277, Clinical, c-ermB)?
Answer: 0.25 µg/mL (≈ 0.258 µM)

Question: And the MIC (S. pneumoniae; S. pneumoniae 21Q352, Clinical, i-MLSB)?
Answer: ≤ 0.002 µg/mL

Question: What about the MIC (S. pneumoniae; S. pneumoniae 21Q353, Clinical, i-MLSB) of the same compound?
Answer: ≤ 0.002 µg/mL

Question: And the MIC (S. pneumoniae; S. pneumoniae 21W257, Clinical, c-ermB, mef)?
Answer: 0.016 µg/mL (≈ 0.0165 µM)

Question: And the MIC (S. pneumoniae; S. pneumoniae 21X435, Clinical)?
Answer: ≤ 0.002 µg/mL

Question: What about the MIC (S. pneumoniae; S. pneumoniae ATCC49619) of the same compound?
Answer: ≤ 0.002 µg/mL

Question: And the MIC (S. pneumoniae; Streptococcus pneumoniae, ATCC49619, S. pneumoniae ATCC49619, Ery-S, read-out: MIC)?
Answer: ≤ 0.008 µg/mL

Question: What about the MIC (S. pneumoniae; Streptococcus pneumoniae, S. pneumoniae 05O173, c-ermB, mef, read-out: MIC) of the same compound?
Answer: 2 µg/mL (≈ 2.07 µM)

Question: And the MIC (S. pneumoniae; Streptococcus pneumoniae, S. pneumoniae 07P390, c-ermB, read-out: MIC)?
Answer: 0.03 µg/mL (≈ 0.031 µM)

Question: And the MIC (S. pneumoniae; Streptococcus pneumoniae, S. pneumoniae PU09, mef, read-out: MIC)?
Answer: ≤ 0.008 µg/mL

Question: What about the “dual-reporter inhibition zone colour” value [4] of the same compound?
Answer: red color inhibition zone

Question: And the MIC (S. pyogenes; S. pyogenes 01-968, Clinical, i-ermB)?
Answer: ≤ 0.002 µg/mL

Question: And the MIC (S. pyogenes; S. pyogenes 12-207, Clinical, mef)?
Answer: 0.016 µg/mL (≈ 0.0165 µM)

Question: What about the MIC (S. pyogenes; S. pyogenes 21C303, Clinical, c-ermB) of the same compound?
Answer: 0.5 µg/mL (≈ 0.517 µM)

Question: What about the MIC (S. pyogenes; S. pyogenes 21D184, Clinical, c-ermB) of the same compound?
Answer: 0.5 µg/mL (≈ 0.517 µM)

Question: And the MIC (S. pyogenes; S. pyogenes 21D199, Clinical, c-ermB)?
Answer: 1 µg/mL (≈ 1.03 µM)

Question: And the MIC (S. pyogenes; S. pyogenes 21D200, Clinical, c-ermB)?
Answer: 0.25 µg/mL (≈ 0.258 µM)

Question: What about the MIC (S. pyogenes; S. pyogenes 21K003, Clinical, mef) of the same compound?
Answer: 0.06 µg/mL (≈ 0.062 µM)

Question: What about the MIC (S. pyogenes; S. pyogenes 21M063, Clinical, c-ermB) of the same compound?
Answer: 0.25 µg/mL (≈ 0.258 µM)

Question: What about the MIC (S. pyogenes; S. pyogenes 21W186, Clinical, c-ermTR) of the same compound?
Answer: 4 µg/mL (≈ 4.14 µM)

Question: And the MIC (S. pyogenes; Streptococcus pyogenes, S. pyogenes 01-968, i-ermTR (Table S5), read-out: MIC)?
Answer: ≤ 0.008 µg/mL

Question: And the MIC (S. pyogenes; Streptococcus pyogenes, S. pyogenes 12-206, c-ermB (Table S5), read-out: MIC)?
Answer: 0.12 µg/mL (≈ 0.124 µM)

Question: And the MIC (S. pyogenes; Streptococcus pyogenes, S. pyogenes 12-206, c-ermTR, read-out: MIC)?
Answer: 0.06 µg/mL (≈ 0.062 µM)
